biological target: hOGG1 (Homo sapiens, UniProt O15527); test: Biochemical fluorescence assay to measure enzymatic activity of hOGG1 (OGG1/APEX IC50); design: Protein His-hOGG1 (12-323) was prepared; His (N); host or cells: E. coli; conditions: 1 nM OGG1+2 nM APEX+6 nM dsDNA (8-oxo-dG substrate); pH 7.5; RT 40 min; read-out: OGG1/APEX IC50
Summary of the method: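 His-hOGG1 (12-323, E. coli) at 1 nM with 2 nM hAPE1/APEX1, preincubated 20 min RT with compound. Then 6 nM 8-oxo-dG dsDNA substrate added, 40 min at RT in Tris pH 7.5, 100 mM KCl. TAMRA fluorescence (Ex520/Em600) converted to % inhibition vs controls; IC50 from 3-parameter fit of 10-point curve.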

Sequence of hOGG1 (O15527 12-323): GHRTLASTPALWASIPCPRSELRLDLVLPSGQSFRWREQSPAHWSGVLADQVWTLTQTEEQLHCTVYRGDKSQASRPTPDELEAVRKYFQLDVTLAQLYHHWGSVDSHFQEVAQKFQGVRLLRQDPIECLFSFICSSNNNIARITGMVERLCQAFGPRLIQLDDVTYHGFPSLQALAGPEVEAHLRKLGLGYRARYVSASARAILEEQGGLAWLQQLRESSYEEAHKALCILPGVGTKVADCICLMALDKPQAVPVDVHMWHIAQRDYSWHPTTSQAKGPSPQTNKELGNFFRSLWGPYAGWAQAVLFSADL

First: COc1ccc(NC(=O)[C@H]2CC[C@@H](N3Cc4c(C)ccc(OC)c4NC3=O)CC2)cc1Cl [Example 3, (1s,4s)-N-(3-Chloro-4-methoxyphenyl)-4-(8-methoxy-5-methyl-2-oxo-1,2-dihydroquinazolin-3(4H)-yl)cyclohexanecarboxamide]
Second: COc1cc(NC(=O)[C@H]2CC[C@@H](N3Cc4c(C)ccc(OC)c4NC3=O)CC2)ccc1C [Example 47, (1s,4s)-N-(3-Methoxy-4-methylphenyl)-4-(8-methoxy-5-methyl-2-oxo-1,2-dihydroquinazolin-3(4H)-yl)cyclohexanecarboxamide]
The IC50 of the first is higher: 100 to 1000 nM for the first, under 100 nM for the second. The second is the more potent here.

First: COc1ccc(NC(=O)[C@H]2CC[C@@H](N3Cc4c(C)cccc4C3=O)CC2)cc1C#N [Example 239, (1s,4s)-N-(3-Cyano-4-methoxyphenyl)-4-(4-methyl-1-oxoisoindolin-2-yl)cyclohexanecarboxamide]
Second: COc1cc(NC(=O)[C@H]2CC[C@@H](N3Cc4c(C)ccc(C#N)c4C3=O)CC2)ccc1C [Example 143, (1s,4s)-4-(7-Cyano-4-methyl-1-oxoisoindolin-2-yl)-N-(3-methoxy-4-methylphenyl)cyclohexanecarboxamide]
The IC50 of the first is higher: 100 to 1000 nM for the first, under 100 nM for the second.

COc1cc(NC(=O)[C@H]2CC[C@@H](N3Cc4c(C)cc(N(C)C)cc4C3=O)CC2)ccc1C [Example 135, (1s,4s)-4-(6-(Dimethylamino)-4-methyl-1-oxoisoindolin-2-yl)-N-(3-methoxy-4-methylphenyl)cyclohexane-1-carboxamide] and CNCCNc1cc(C)c2c(c1)C(=O)N([C@H]1CC[C@@H](C(=O)Nc3ccc(C)c(OC)c3)CC1)C2 [Example 193, (1s,4s)-N-(3-methoxy-4-methylphenyl)-4-(4-methyl-6-(2-(methylamino)ethylamino)-1-oxoisoindolin-2-yl)cyclohexanecarboxamide] cannot be ordered by IC50: under 100 nM for the first, under 100 nM for the second.

COc1ccc(NC(=O)[C@H]2CC[C@@H](N3Cc4c(C)cc(NCCN(C)C)cc4NC3=O)CC2)cc1C [Example 97, (1s,4s)-4-(7-(2-(dimethylamino)ethylamino)-5-methyl-2-oxo-1,2-dihydroquinazolin-3(4H)-yl)-N-(4-methoxy-3-methylphenyl)cyclohexanecarboxamide] and COc1ccc(NC(=O)[C@H]2CC[C@@H](N3Cc4c(C)cc(NCCN(C)C)cc4NC3=O)CC2)cc1C#N [Example 99, (1s,4s)-N-(3-cyano-4-methoxyphenyl)-4-(7-(2-(dimethylamino)ethylamino)-5-methyl-2-oxo-1,2-dihydroquinazolin-3(4H)-yl)cyclohexanecarboxamide] cannot be ordered by IC50: under 100 nM for the first, under 100 nM for the second.

Compared with COc1cc(NC(=O)[C@H]2CC[C@@H](N3Cc4c(C)ccc(P(C)(C)=O)c4NC3=O)CC2)ccc1C [Example 5, (1s,4s)-4-(8-(Dimethylphosphoryl)-5-methyl-2-oxo-1,2-dihydroquinazolin-3(4H)-yl)-N-(3-methoxy-4-methylphenyl)cyclohexanecarboxamide], COc1cc(NC(=O)[C@H]2CC[C@@H](N3Cc4c(C)ccc(CN)c4NC3=O)CC2)ccc1C [Example 58, (1s,4s)-4-(8-(aminomethyl)-5-methyl-2-oxo-1,2-dihydroquinazolin-3(4H)-yl)-N-(3-methoxy-4-methylphenyl)cyclohexanecarboxamide] is lower in IC50: 100 to 1000 nM for the first, under 100 nM for the second. The second is the more potent here.

COc1cc(NC(=O)[C@H]2CC[C@@H](N3Cc4c(C)ccc(CNC(C)=O)c4NC3=O)CC2)ccc1C [Example 17, (1s,4s)-4-(8-(Acetamidomethyl)-5-methyl-2-oxo-1,2-dihydroquinazolin-3(4H)-yl)-N-(3-methoxy-4-methylphenyl)cyclohexanecarboxamide] and COc1cc(NC(=O)[C@H]2CC[C@@H](N3Cc4c(C)cnc(CNC(C)=O)c4NC3=O)CC2)ccc1C [Example 19, (1s,4s)-4-(8-(Acetamidomethyl)-5-methyl-2-oxo-1,2-dihydropyrido[3,4-d]pyrimidin-3(4H)-yl)-N-(3-methoxy-4-methylphenyl)cyclohexanecarboxamide] cannot be ordered by IC50: under 100 nM for the first, under 100 nM for the second.

Compared with COc1cc(NC(=O)[C@]2(C)CC[C@H](N3Cc4c(C)ccc(OC)c4NC3=O)CC2)ccc1C [Example 13, (1s,4s)-N-(3-Methoxy-4-methylphenyl)-4-(8-methoxy-5-methyl-2-oxo-1,2-dihydroquinazolin-3(4H)-yl)-1-methylcyclohexanecarboxamide], COc1ccc(NC(=O)[C@]2(C)CC[C@H](N3Cc4c(C)ccc(OC)c4NC3=O)CC2)cc1C (single isomer, unassigned) [Example 11, (1s,4s)-N-(3-methyl-4-methoxyphenyl)-4-(8-methoxy-5-methyl-2-oxo-1,2-dihydroquinazolin-3(4H)-yl)-1-methylcyclohexanecarboxamide] is lower in IC50: 100 to 1000 nM for the first, under 100 nM for the second. The second is the more potent here.

COc1ccc(NC(=O)[C@]2(C)CC[C@H](N3Cc4c(C)ccc(OC)c4NC3=O)CC2)cc1C#N (single isomer, unassigned) [Example 9, (1s,4s)-N-(3-cyano-4-methoxyphenyl)-4-(8-methoxy-5-methyl-2-oxo-1,2-dihydroquinazolin-3(4H)-yl)-1-methylcyclohexanecarboxamide] and COc1ccc(NC(=O)[C@]2(C)CC[C@H](N3Cc4c(C)ccc(OC)c4NC3=O)CC2)cc1Cl (single isomer, unassigned) [Example 7, (1s,4s)-N-(3-chloro-4-methoxyphenyl)-4-(8-methoxy-5-methyl-2-oxo-1,2-dihydroquinazolin-3(4H)-yl)-1-methylcyclohexanecarboxamide] cannot be ordered by IC50: under 100 nM for the first, under 100 nM for the second.

First: COc1cc(NC(=O)[C@H]2CC[C@@H](N3Cc4ccccc4NC3=O)CC2)ccc1C [Example 67, (1s,4s)-N-(3-methoxy-4-methylphenyl)-4-(2-oxo-1,2-dihydroquinazolin-3(4H)-yl)cyclohexanecarboxamide]
Second: COc1cc(NC(=O)[C@H]2CC[C@@H](N3Cc4c(C)ccnc4NC3=O)CC2)ccc1C [Example 41, (1s,4s)-N-(3-Methoxy-4-methylphenyl)-4-(5-methyl-2-oxo-1,2-dihydropyrido[2,3-d]pyrimidin-3(4H)-yl)cyclohexanecarboxamide]
The IC50 of the first is higher: 100 to 1000 nM for the first, under 100 nM for the second. The second is the more potent here.

COc1ccc(NC(=O)[C@H]2CC[C@@H](N3Cc4c(C)cc(NCCN(C)C)cc4C3=O)CC2)cc1C#N [Example 259, (1s,4s)-N-(3-Cyano-4-methoxyphenyl)-4-(6-(2-(dimethylamino)ethylamino)-4-methyl-1-oxoisoindolin-2-yl)cyclohexanecarboxamide] and COc1cc(NC(=O)[C@H]2CC[C@@H](N3Cc4c(C)ccc(C#N)c4NC3=O)CC2)ccc1C [Example 59, (1s,4s)-4-(8-cyano-5-methyl-2-oxo-1,2-dihydroquinazolin-3(4H)-yl)-N-(3-methoxy-4-methylphenyl)cyclohexanecarboxamide] cannot be ordered by IC50: under 100 nM for the first, under 100 nM for the second.

COc1cc(NC(=O)[C@H]2CC[C@@H](N3Cc4c(C)cc(CN)cc4NC3=O)CC2)ccc1C [Example 28, (1s,4s)-4-(7-(Aminomethyl)-5-methyl-2-oxo-1,2-dihydroquinazolin-3(4H)-yl)-N-(3-methoxy-4-methylphenyl)cyclohexanecarboxamide] and COc1ccc(NC(=O)[C@H]2CC[C@@H](N3Cc4c(C)ccnc4NC3=O)CC2)cc1C [Example 16, (1s,4s)-N-(4-Methoxy-3-methylphenyl)-4-(5-methyl-2-oxo-1,2-dihydropyrido[2,3-d]pyrimidin-3(4H)-yl)cyclohexanecarboxamide] cannot be ordered by IC50: under 100 nM for the first, under 100 nM for the second.

COc1cc(NC(=O)[C@H]2CC[C@@H](N3Cc4c(C)ccc(N5CC6(COC6)C5)c4NC3=O)CC2)ccc1C [Example 35, (1s,4s)-N-(3-Methoxy-4-methylphenyl)-4-(5-methyl-2-oxo-8-(2-oxa-6-azaspiro[3.3]heptan-6-yl)-1,2-dihydroquinazolin-3(4H)-yl)cyclohexanecarboxamide] and COc1cc(NC(=O)[C@H]2CC[C@@H](N3Cc4c(C)cc(OCCN5CC(F)(F)C5)cc4C3=O)CC2)ccc1C [Example 255, (1s,4s)-4-(6-(2-(3,3-Difluoroazetidin-1-yl)ethoxy)-4-methyl-1-oxoisoindolin-2-yl)-N-(3-methoxy-4-methylphenyl)cyclohexanecarboxamide] fall in the same range of IC50: 100 to 1000 nM for the first, 100 to 1000 nM for the second.
